EC50 data for 85 compounds are collected here from PubChem BioAssay AID1959 (Broad Institute, 2009).

Activity calls are given as the source filed them.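 Rule for the calls: active = growth-inhibition EC50 no more than tenfold above the top tested dose; inconclusive = flat fit between 30% and 70% inhibition, or unreliable fit; inactive = EC50 more than tenfold above the top tested dose.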 Bounds are passed on as bounds.

This assay deals with E. coli NEB5alpha growth, BacTiter-Glo luminescence, 4 h. The assay can be described thus: Escherichia coli growth inhibition, dose response, counter-screen for MEX-5/POS-1 RNA-binding inhibitor project, luminescence, NEB5alpha (AID 1959).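 Note: pUC19-transformed ampicillin-resistant cells grown in LB with ampicillin.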
By EC50 is commonly meant the concentration needed to bring the measured effect to its halfway point. `O=C1C2CC=C(Cl)CC2C(=O)N1CC1Cc2ccccc2CO1` (stereo not given): the EC50 was > 11 µM (inactive).
The result for `COc1ccc(C(=O)/C=C/c2ccc(N3CCCCC3)c([N+](=O)[O-])c2)c(OC)c1` reads > 11 µM (inactive); that for `CC1(OC(=O)C2CCCC2)C(=O)C=C2C=C(c3ccsc3)OC=C2C1=O` (stereo not given), > 11 µM (inactive).
The result for `COc1ccc2c(c1)c1nc3ccccc3nc1n2Cc1ccc(OC)c(OC)c1` reads > 11 µM (inactive).
Regarding `CCOn1c(=O)c(-c2cc3ccccc3o2)[n+]([O-])c2ccccc21`, the EC50 was > 11 µM (inactive).
The result for `O=C1c2cccc3c(N4CCCCC4)ccc(c23)C(=O)N1CCO` reads > 11 µM (inactive); that for `CN(C)c1ccc(N=Cc2c(O)n(CCC3=CCCCC3)c(=O)[nH]c2=O)cc1`, > 11 µM (inactive).
The result for `N#CCC(N)=C(C#N)C#N` reads > 11 µM (inactive).
The result for `O=C(O[C@@H]1Cc2c(O)cc(O)cc2O[C@@H]1c1cc(O)c(O)c(O)c1)c1cc(O)c(O)c(O)c1` reads > 11 µM (inactive); that for `CCn1c(C)cc(/C=C2\C(=O)NC(=O)N(c3ccccc3C)C2=O)c1C`, > 11 µM (inactive).
Take `CN(C)c1ccc2nc3ccc(=[N+](C)C)cc-3sc2c1`: the EC50 was > 11 µM (inactive).
The result for `COC(=O)C1=NN(C(=O)c2ccc(C)cc2)C(O)(c2ccc(Cl)cc2)C1` (stereo not given) reads > 11 µM (inactive); that for `Cc1ccc(C2C(C(=O)c3ccco3)=C(O)C(=O)N2c2nnc(C)s2)cc1` (stereo not given), > 11 µM (inactive).
The result for `CC(C)N1CCc2c(sc(NC(=O)c3ccc4ccccc4c3)c2C(N)=O)C1` reads > 11 µM (inactive); that for `Cc1ccc(-n2c(=O)c(C#N)cc3c(=O)n4ccccc4nc32)cc1C`, > 11 µM (inactive).
The result for `Cc1ccccc1CSCCNC(=S)Nc1ccccc1` reads > 11 µM (inactive); that for `O=C(CCl)NCCN1C(=O)S/C(=C\c2cccnc2)C1=O`, > 11 µM (inactive).
`Oc1c(C=Nc2ccccc2Cl)[nH]c2ccccc12`: the EC50 is > 11 µM (inactive).
The result for `Cc1sc(-c2ccccn2)nc1OC(=O)c1cccc(Cl)c1Cl` reads > 11 µM (inactive); that for `CCN(CC)c1ccc(/C=c2/sc3nnc(-c4ccccc4C)n3c2=O)cc1`, > 11 µM (inactive); that for `Fc1ccc(NCc2cccnc2)cc1F`, > 11 µM (inactive).
The result for `O=C1C2CC=C(Cl)CC2C(=O)N1CCc1ccccc1` (stereo not given) reads > 11 µM (inactive).
On to `O=c1[nH]c(=O)n(-c2ccc(Br)cc2)c(O)c1C=NCCN1CCCCC1`, for which the EC50 was > 11 µM (inactive).
In the case of `CCCCC1=CC2=C(c3ccco3)C(=O)C(C)(OC(=O)c3ccc(OC)cc3)C(=O)C2=CN1CCN1CCOCC1` (stereo not given), the EC50 was > 11 µM (inactive).
The result for `Cc1cccc(N=C2NC(=O)CS2)c1` reads > 11 µM (inactive); that for `COc1cccc(C2(O)CCN(CC(=O)Nc3nc(C)cs3)CC2)c1`, > 11 µM (inactive); that for `CN1CC=C2C(C#N)=C(N)C(C#N)(C#N)C(c3ccncc3)C2C1` (stereo not given), > 11 µM (inactive).
The result for `N#CC1=C(N)OC2=C(C(=O)CCC2)C12C(=O)N1CCCc3cccc2c31` (stereo not given) reads > 11 µM (inactive).
The result for `COC(=O)c1ccc(-n2c(C)ccc2-c2ccccc2)cc1` reads > 11 µM (inactive); that for `Cc1ccc(CN2C(=O)N/C(=C\c3cccn3-c3cccc(C(=O)O)c3)C2=O)cc1`, > 11 µM (inactive); that for `CNC(=O)NC(=O)COC(=O)c1ccc(-n2c(C)ccc2C)cc1`, > 11 µM (inactive).
For the compound `COc1ccc(CCCc2nc3ccccc3[nH]2)cc1`, the EC50 is > 11 µM (inactive).
Turning to `CCCCC1=CC2=CC(=O)C(C)(OC(=O)c3ccc(Cl)nc3)C(=O)C2=CO1` (stereo not given), the EC50 was > 11 µM (inactive).
The result for `CC1CCN(c2nc3ccccc3nc2C(C#N)C(=O)NC2CCCCC2)CC1` (stereo not given) reads > 11 µM (inactive); that for `N#CC1=C(N)Oc2ccc3ccc(O)cc3c2C1c1ccsc1` (stereo not given), > 11 µM (inactive).
The result for `O=c1c(/C=C(\O)c2ccccc2)nc2ccccc2n1-c1ccccc1` reads > 11 µM (inactive); that for `O=C(c1ccc(Br)s1)N1CCN(c2ccccn2)CC1`, > 11 µM (inactive); that for `O=c1[nH]c(CN2CCc3ccccc3C2)nc2ccccc12`, > 11 µM (inactive).
For the compound `COc1ccc(C2C(C#N)=C(N)OC3=C2C(=O)CC(C)(C)C3)cc1Cn1cc([N+](=O)[O-])cn1` (stereo not given), the EC50 is > 11 µM (inactive).
The result for `O=C(O)c1ccc(-n2c(-c3cc(-c4ccco4)[nH]n3)n[nH]c2=S)cc1` reads > 11 µM (inactive); that for `CCOC(=O)N1CCN(/C=C(\C#N)c2nc3ccccc3s2)CC1`, > 11 µM (inactive).
Regarding `Cc1[nH][nH]c(=O)c1C(c1cc([N+](=O)[O-])ccc1O)c1c(C)[nH][nH]c1=O`, the EC50 is > 11 µM (inactive).
The result for `COc1ccc(C2C(C#N)=C(/N=C/N3CCN(C)CC3)OC3=C2C(=O)CC(C)(C)C3)cc1` (stereo not given) reads > 11 µM (inactive); that for `CCOc1ccc(-n2c(O)c(/C=N/c3ccnn3Cc3ccncc3)c3ccccc3c2=O)cc1`, > 11 µM (inactive).
The result for `Cc1nc(S/C(=C/c2ccc(-c3cccc(Cl)c3)o2)C(=O)O)n[nH]1` reads > 11 µM (inactive); that for `CCN1C(=O)/C(=C2\SC(=S)N(NC(=O)c3ccccc3O)C2=O)c2ccccc21`, > 11 µM (inactive); that for `O=c1c2ccccc2oc2ccc(NCCCn3ccnc3)cc12`, > 11 µM (inactive).
The result for `COCCCn1c(N)c(-c2nc3ccccc3n2C)c2nc3ccccc3nc21` reads > 11 µM (inactive); that for `O=C(Cn1cc(C=C2C(=O)NC(=O)NC2=O)c2ccccc21)NCC1CCCO1` (stereo not given), > 11 µM (inactive); that for `Cc1cccc(N2C(=O)/C(=C/c3ccc(N4CCN(C)CC4)o3)C(=O)NC2=S)c1C`, > 11 µM (inactive).
As to `CCc1ccc(/C=C2\SC(=S)N(CCCC(=O)Nc3ccccn3)C2=O)cc1`, the EC50 was > 11 µM (inactive).
The result for `CCOc1ccc(S(=O)(=O)Nc2cc(SCC(=O)O)c(O)c3ccccc23)cc1` reads > 11 µM (inactive); that for `Cc1cccc(S(=O)(=O)C(C#N)c2nc3ccccc3nc2N2CCOCC2)c1` (stereo not given), > 11 µM (inactive).
The result for `COc1ccc(OC)c(C2Nc3c(Cl)ccc(C(=O)O)c3C3C=CCC32)c1` (stereo not given) reads > 11 µM (inactive).
As to `CC(=O)N(C)c1ccc(N=NC2C(=O)N(C(N)=S)N=C2C)cc1` (stereo not given), the EC50 is > 11 µM (inactive).
The result for `CCN(CC)C(=O)c1ccc2c(c1)C1C(Cl)C(Sc3ccccc3[N+](=O)[O-])CC1C(C(=O)O)N2` (stereo not given) reads > 11 µM (inactive).
As to `C=CCOn1c(=O)c(-c2cc3ccccc3o2)[n+]([O-])c2ccccc21`, the EC50 is > 11 µM (inactive).
The result for `Cc1ccc(N(C)S(=O)(=O)c2c(C)noc2/C=C/N(C)C)cc1` reads > 11 µM (inactive); that for `COc1ccc2nc3ccccc3nc2c1NC(=O)c1ccc(Br)cc1`, > 11 µM (inactive); that for `CN(C)S(=O)(=O)c1cccc(NC(=S)N/N=C/c2ccc(O)c(O)c2O)c1`, > 11 µM (inactive).
The result for `NS(=O)(=O)c1ccc(-c2ccc(/C=C3\NC(=S)NC3=O)o2)cc1` reads > 11 µM (inactive); that for `COc1ccc(S(=O)(=O)Nc2ccc(O)c(Sc3ncn[nH]3)c2)cc1`, > 11 µM (inactive); that for `N#C/C(=C/c1ccc(CNS(=O)(=O)c2ccccc2)o1)C(=O)NCc1ccccc1`, > 11 µM (inactive).
The result for `Cc1cc(CC(C)C)n(-c2nc3ccccc3c(=O)n2OCc2ccccc2)n1` reads > 11 µM (inactive); that for `O=C(NNC(=O)c1ccccc1[N+](=O)[O-])c1cnccn1`, > 11 µM (inactive); that for `CCN(CC)S(=O)(=O)c1ccc(N=Cc2c(C)c(C#N)c(=O)n(C)c2O)cc1`, > 11 µM (inactive).
For `O=C(O)c1ccc(N/N=C/C2=C(N3CCOCC3)C(=C\c3ccccc3)/CC2)cc1`, the EC50 is > 11 µM (inactive).
The result for `COC(=O)c1ccc(C)c(-n2c(C)cc(C=O)c2C)c1` reads > 11 µM (inactive); that for `Cc1ccc(Sc2ccc(C=C3C(=O)N(C)C(=O)N(C)C3=O)o2)cc1`, > 11 µM (inactive).
The result for `CN(CC(=O)NCc1ccccn1)S(=O)(=O)c1ccc(Br)cc1` reads > 11 µM (inactive); that for `O=c1c(O)cccc2cc(O)c(O)c(O)c12`, > 11 µM (inactive); that for `Cc1nc(N2CCN(Cc3ccccc3)CC2)c(C#N)c2c1COC(C)(C)C2`, > 11 µM (inactive).
The result for `CCc1c(C)nc(SCC(=O)NNC(=O)c2ccco2)[nH]c1=O` reads > 11 µM (inactive); that for `COc1ccc(C(=O)c2sc3nc(C)cc(-c4cccs4)c3c2N)cc1OC`, > 11 µM (inactive); that for `Nc1cc(C(=O)O)c(N)c2c1C(=O)c1ccccc1C2=O`, > 11 µM (inactive).
For `COc1cccc(OCCn2cc(C=O)c3ccccc32)c1`, the EC50 was > 11 µM (inactive).
Take `Cc1ccc(Nc2ccc([N+](=O)[O-])ccc2=O)cc1`: the EC50 is > 11 µM (inactive).
In the case of `C=CCOc1cccc(C2C(C(=O)c3ccc(C)o3)=C(O)C(=O)N2c2nnc(C)s2)c1` (stereo not given), the EC50 was > 11 µM (inactive).
The result for `COc1ccc(N=C(C)c2sc3ccccc3c2O)cc1` reads > 11 µM (inactive).
The result for `N=c1c(C(=O)NC2CCCCC2)cc2c(=O)n3ccccc3nc2n1Cc1ccc(F)cc1` reads > 11 µM (inactive).
The result for `C/C(O)=c1/ccc2cccc3nc(C)nc1c23` reads > 11 µM (inactive).
On to `Cc1cccc(C)c1NC(=O)CN1C(=O)S/C(=C\c2cccn2-c2cccc(C(=O)O)c2)C1=O`, for which the EC50 is > 11 µM (inactive).
Regarding `COC(=O)c1c(C(=O)OC)c2n(c1C)Cc1ccccc1C2`, the EC50 is > 11 µM (inactive).
The result for `CCN1CCN(Cc2c(O)ccc3c2O/C(=C\c2ccccc2)C3=O)CC1` reads > 11 µM (inactive); that for `O=C(O)c1ccc(S(=O)(=O)/N=C2\C=C(Nc3ccccc3F)C(=O)c3ccccc32)cc1`, > 11 µM (inactive).
